In patent US20260305610A1, “TRIAZOLE COMPOUND, AND PREPARATION METHOD THEREFOR, HERBICIDAL COMPOSITION AND USE THEREOF” (QINGDAO KINGAGROOT CHEMICAL COMPOUND CO., LTD., priority 2023, published 2026):

How the values were obtained:
[1] = test system: monocotyledonous and dicotyledonous weeds; test: Pre-emergence test experiment (weeds); format: in vivo; set-up: key: 9: completely dead; 8: growth control rate is greater than or equal to 90% and less than 100%; 7: growth control rate is greater than or equal to 80% and less than 90%; 6: growth control rate is greater than or equal to 70% and less than 80%; growth control rate is greater than or equal to 50% and less than 70%; 4: growth control rate is greater than or equal to 30% and less than 50%; growth control rate is greater than or equal to 20% and less than 30%; growth control rate is greater than or equal to 10% and less than 20%; growth control rate is less than 10%; 0: no effect; conditions: 30 g a.i./ha
[2] = test system: major crops; test: Pre-emergence test experiment (crops); format: in vivo; set-up: key: 9: completely dead; 8: growth control rate is greater than or equal to 90% and less than 100%; 7: growth control rate is greater than or equal to 80% and less than 90%; 6: growth control rate is greater than or equal to 70% and less than 80%; growth control rate is greater than or equal to 50% and less than 70%; 4: growth control rate is greater than or equal to 30% and less than 50%; growth control rate is greater than or equal to 20% and less than 30%; growth control rate is greater than or equal to 10% and less than 20%; growth control rate is less than 10%; 0: no effect; conditions: 30 g a.i./ha

## Cc1ccc(-n2cnc(C(F)(F)F)n2)nc1Oc1cccc(OC(F)(F)F)c1 [Compound 9]
[1]
  Pre-emergence activity level (growth control rate) on Amaranthus retroflexus: 9
  Pre-emergence activity level (growth control rate) on Descurainia sophia: 9
  Pre-emergence activity level (growth control rate) on Digitaria sanguinalis: 9
  Pre-emergence activity level (growth control rate) on Setaria viridis: 9
  Pre-emergence activity level (growth control rate) on Solanum nigrum: 9
  Pre-emergence activity level (growth control rate) on Veronica: 9
[2]
  Pre-emergence plant damage level (growth control rate) on Corn: 0
  Pre-emergence plant damage level (growth control rate) on Cotton: 0
  Pre-emergence plant damage level (growth control rate) on Soybean: 0

## Cc1ccc(-n2cnc(C(F)(F)F)n2)nc1Oc1ccc(F)c(C(F)(F)F)c1 [Compound 10]
[1]
  Pre-emergence activity level (growth control rate) on Amaranthus retroflexus: 9
  Pre-emergence activity level (growth control rate) on Descurainia sophia: 9
  Pre-emergence activity level (growth control rate) on Digitaria sanguinalis: 9
  Pre-emergence activity level (growth control rate) on Setaria viridis: 9
  Pre-emergence activity level (growth control rate) on Solanum nigrum: 9
  Pre-emergence activity level (growth control rate) on Veronica: 9
[2]
  Pre-emergence plant damage level (growth control rate) on Corn: 0
  Pre-emergence plant damage level (growth control rate) on Cotton: 0
  Pre-emergence plant damage level (growth control rate) on Soybean: 0

## Cc1ccc(-n2cnc(C(F)(F)F)n2)nc1Oc1cncc(C(F)(F)F)c1 [Compound 11]
[1]
  Pre-emergence activity level (growth control rate) on Amaranthus retroflexus: 9
  Pre-emergence activity level (growth control rate) on Descurainia sophia: 9
  Pre-emergence activity level (growth control rate) on Digitaria sanguinalis: 9
  Pre-emergence activity level (growth control rate) on Setaria viridis: 9
  Pre-emergence activity level (growth control rate) on Solanum nigrum: 9
  Pre-emergence activity level (growth control rate) on Veronica: 9
[2]
  Pre-emergence plant damage level (growth control rate) on Corn: 0
  Pre-emergence plant damage level (growth control rate) on Cotton: 0
  Pre-emergence plant damage level (growth control rate) on Soybean: 0

## Cc1ccc(-n2cnc(C(F)(F)F)n2)nc1Oc1cccc(C(F)F)c1 [Compound 12]
[1]
  Pre-emergence activity level (growth control rate) on Amaranthus retroflexus: 9
  Pre-emergence activity level (growth control rate) on Descurainia sophia: 9
  Pre-emergence activity level (growth control rate) on Digitaria sanguinalis: 9
  Pre-emergence activity level (growth control rate) on Setaria viridis: 9
  Pre-emergence activity level (growth control rate) on Solanum nigrum: 9
  Pre-emergence activity level (growth control rate) on Veronica: 9
[2]
  Pre-emergence plant damage level (growth control rate) on Corn: 0
  Pre-emergence plant damage level (growth control rate) on Cotton: 0
  Pre-emergence plant damage level (growth control rate) on Soybean: 0

## Cc1ccc(-n2cnc(C(C)(F)F)n2)nc1Oc1cccc(C(F)(F)F)c1 [Compound 13]
[1]
  Pre-emergence activity level (growth control rate) on Amaranthus retroflexus: 9
  Pre-emergence activity level (growth control rate) on Descurainia sophia: 9
  Pre-emergence activity level (growth control rate) on Digitaria sanguinalis: 8 (growth control rate is greater than or equal to 90% and less than 100%)
  Pre-emergence activity level (growth control rate) on Setaria viridis: 7 (growth control rate is greater than or equal to 80% and less than 90%)
  Pre-emergence activity level (growth control rate) on Veronica: 9
[2]
  Pre-emergence plant damage level (growth control rate) on Corn: 0
  Pre-emergence plant damage level (growth control rate) on Cotton: 0
  Pre-emergence plant damage level (growth control rate) on Soybean: 0

## Cc1ccc(-n2cnc(C(F)(F)C(F)(F)F)n2)nc1Oc1cccc(C(F)(F)F)c1 [Compound 14]
[1]
  Pre-emergence activity level (growth control rate) on Amaranthus retroflexus: 9
  Pre-emergence activity level (growth control rate) on Descurainia sophia: 9
  Pre-emergence activity level (growth control rate) on Digitaria sanguinalis: 8 (growth control rate is greater than or equal to 90% and less than 100%)
  Pre-emergence activity level (growth control rate) on Setaria viridis: 9
  Pre-emergence activity level (growth control rate) on Solanum nigrum: 9
  Pre-emergence activity level (growth control rate) on Veronica: 9
[2]
  Pre-emergence plant damage level (growth control rate) on Corn: 0
  Pre-emergence plant damage level (growth control rate) on Cotton: 0
  Pre-emergence plant damage level (growth control rate) on Soybean: 0

## Cc1ccc(-n2cnc(C(F)(F)C(F)(F)F)n2)nc1Oc1cncc(C(F)(F)F)c1 [Compound 15]
[1]
  Pre-emergence activity level (growth control rate) on Amaranthus retroflexus: 9
  Pre-emergence activity level (growth control rate) on Descurainia sophia: 9
  Pre-emergence activity level (growth control rate) on Digitaria sanguinalis: 8 (growth control rate is greater than or equal to 90% and less than 100%)
  Pre-emergence activity level (growth control rate) on Setaria viridis: 9
  Pre-emergence activity level (growth control rate) on Solanum nigrum: 8 (growth control rate is greater than or equal to 90% and less than 100%)
  Pre-emergence activity level (growth control rate) on Veronica: 9
[2]
  Pre-emergence plant damage level (growth control rate) on Corn: 0
  Pre-emergence plant damage level (growth control rate) on Cotton: 0
  Pre-emergence plant damage level (growth control rate) on Soybean: 0

## CCc1ccc(-n2cnc(C(F)(F)F)n2)nc1Oc1cncc(C(F)(F)F)c1 [Compound 17]
[1]
  Pre-emergence activity level (growth control rate) on Amaranthus retroflexus: 9
  Pre-emergence activity level (growth control rate) on Descurainia sophia: 9
  Pre-emergence activity level (growth control rate) on Digitaria sanguinalis: 9
  Pre-emergence activity level (growth control rate) on Setaria viridis: 9
  Pre-emergence activity level (growth control rate) on Solanum nigrum: 9
  Pre-emergence activity level (growth control rate) on Veronica: 9
[2]
  Pre-emergence plant damage level (growth control rate) on Corn: 0
  Pre-emergence plant damage level (growth control rate) on Cotton: 0
  Pre-emergence plant damage level (growth control rate) on Soybean: 0

## CCc1ccc(-n2cnc(C(C)(F)F)n2)nc1Oc1cccc(C(F)(F)F)c1 [Compound 18]
[1]
  Pre-emergence activity level (growth control rate) on Amaranthus retroflexus: 9
  Pre-emergence activity level (growth control rate) on Descurainia sophia: 9
  Pre-emergence activity level (growth control rate) on Digitaria sanguinalis: 8 (growth control rate is greater than or equal to 90% and less than 100%)
  Pre-emergence activity level (growth control rate) on Setaria viridis: 8 (growth control rate is greater than or equal to 90% and less than 100%)
  Pre-emergence activity level (growth control rate) on Solanum nigrum: 8 (growth control rate is greater than or equal to 90% and less than 100%)
  Pre-emergence activity level (growth control rate) on Veronica: 9
[2]
  Pre-emergence plant damage level (growth control rate) on Corn: 0
  Pre-emergence plant damage level (growth control rate) on Cotton: 0
  Pre-emergence plant damage level (growth control rate) on Soybean: 0

## CCc1ccc(-n2cnc(C(F)(F)C(F)(F)F)n2)nc1Oc1cccc(C(F)(F)F)c1 [Compound 19]
[1]
  Pre-emergence activity level (growth control rate) on Amaranthus retroflexus: 9
  Pre-emergence activity level (growth control rate) on Descurainia sophia: 9
  Pre-emergence activity level (growth control rate) on Digitaria sanguinalis: 8 (growth control rate is greater than or equal to 90% and less than 100%)
  Pre-emergence activity level (growth control rate) on Setaria viridis: 8 (growth control rate is greater than or equal to 90% and less than 100%)
  Pre-emergence activity level (growth control rate) on Solanum nigrum: 8 (growth control rate is greater than or equal to 90% and less than 100%)
  Pre-emergence activity level (growth control rate) on Veronica: 9
[2]
  Pre-emergence plant damage level (growth control rate) on Corn: 0
  Pre-emergence plant damage level (growth control rate) on Cotton: 0
  Pre-emergence plant damage level (growth control rate) on Soybean: 0

## CCCc1ccc(-n2cnc(C(F)(F)F)n2)nc1Oc1cccc(C(F)(F)F)c1 [Compound 21]
[1]
  Pre-emergence activity level (growth control rate) on Amaranthus retroflexus: 9
  Pre-emergence activity level (growth control rate) on Descurainia sophia: 9
  Pre-emergence activity level (growth control rate) on Digitaria sanguinalis: 8 (growth control rate is greater than or equal to 90% and less than 100%)
  Pre-emergence activity level (growth control rate) on Setaria viridis: 8 (growth control rate is greater than or equal to 90% and less than 100%)
  Pre-emergence activity level (growth control rate) on Solanum nigrum: 7 (growth control rate is greater than or equal to 80% and less than 90%)
  Pre-emergence activity level (growth control rate) on Veronica: 9
[2]
  Pre-emergence plant damage level (growth control rate) on Corn: 0
  Pre-emergence plant damage level (growth control rate) on Cotton: 0
  Pre-emergence plant damage level (growth control rate) on Soybean: 0

## FC(F)(F)c1cccc(Oc2nc(-n3cnc(C(F)(F)F)n3)ccc2C2CC2)c1 [Compound 22]
[1]
  Pre-emergence activity level (growth control rate) on Amaranthus retroflexus: 9
  Pre-emergence activity level (growth control rate) on Descurainia sophia: 9
  Pre-emergence activity level (growth control rate) on Digitaria sanguinalis: 7 (growth control rate is greater than or equal to 80% and less than 90%)
  Pre-emergence activity level (growth control rate) on Setaria viridis: 8 (growth control rate is greater than or equal to 90% and less than 100%)
  Pre-emergence activity level (growth control rate) on Solanum nigrum: 7 (growth control rate is greater than or equal to 80% and less than 90%)
  Pre-emergence activity level (growth control rate) on Veronica: 9
[2]
  Pre-emergence plant damage level (growth control rate) on Corn: 0
  Pre-emergence plant damage level (growth control rate) on Cotton: 0
  Pre-emergence plant damage level (growth control rate) on Soybean: 0
